Laboratory results reported in PubChem BioAssay AID1963856 (Molecular Pharmacology Branch, DTP, NCI, 2024).
Values joined by “and” are separate entries in the source; they are usually repeats but may differ in a detail not shown here. Equal values may be shown once. Active and inactive are the calls of the source. How the source made its calls: active means viability on the fitted dose curve at most 10% of control; inactive means the rest.

System: LG0567-F671-PDC KRAS tumor spheroid viability
Test: Anticancer human tumor LG0567-F671-PDC patient-derived lung adenocarcinoma cell line growth inhibition [KRAS2]
Conditions: spheroids with HUVEC and MSC; for viability, T/C: stronger effect = lower value
Text: Multicellular complex tumor spheroid response to RAS pathway inhibitors in combination with a targeted agents in patient-derived cell lines with oncogenic KRAS variants from multiple cancer types
A high-throughput screen of multi-cell type tumor spheroids was designed to identify active combinations of targeted small molecules and KRAS pathway inhibitors. Complex spheroids include a stromal component modeled by human endothelial cells (HUVEC) and fibroblasts modeled by human mesenchymal stem cells (MSCs). The concentration ranges selected for each drug and investigational agent were based upon clinically achievable concentrations if the clinical Cmax of the agent was known.
Compounds. The drugs and investigational agents: BI-3406 (NSC825286), BAY-293 (NSC824723), batoprotafib (TNO155; NSC825523), sotorasib (AMG 510; NSC818433), MRTX1257 (NSC819558), elimusertib (BAY 1895344; NSC800525), molibresib (GSK525762; NSC774829), temuterkib (LY3214996; NSC803410), venetoclax (NSC766270), alisertib (NSC759677), olaparib (NSC753686), talazoparib (NSC767125), erdafitinib (NSC781556), ipatasertib (NSC767898), cabozantinib (NSC761068), nintedanib (NSC756659), abemaciclib (NSC768073), docetaxel (NSC628503), trametinib (NSC758246), and sapanisertib (NSC764658) were obtained from the National Cancer Institute (NCI) Developmental Therapeutics Program Chemical Repository. The FDA-approved anticancer drug set is available from the Developmental Therapeutics Program. […] The stock solutions were prepared in dimethyl sulfoxide (DMSO, Sigma-Aldrich, St. Louis, MO, cat. D2650) at 800-fold the tested concentration and stored at -70 degrees C prior to their use. All drugs and investigational agents were tested over a range starting from a high concentration at or near the clinical Cmax and decreasing in half-log increments. If the clinical Cmax for an agent had not been determined, the highest concentration tested was 10 microM.
Cell Culture. All cells were maintained in an incubator at 37 degrees C and 5% CO2 with 95% humidity. The PDC lines were cultured according to standard operating procedures established by the NCI PDMR (https://pdmr.cancer.gov/sops/default.htm). Briefly, all PDCs were thawed and cultured in Matrigel-coated flasks prepared with a working solution of 1X Ham's F-12 nutrient mix, without supplementation (Invitrogen, Waltham, MA, cat. 11765054), 100 U/mL penicillin-streptomycin (Invitrogen, cat. 15140122), and 2.5% Matrigel (Corning Inc., Corning, NY, cat. 354248) for the first three passages. All PDCs were cultured in complete DMEM/F-12 media containing advanced DMEM/F-12 (Invitrogen, cat. 12634028), 4.9% defined fetal bovine serum, heat inactivated (HyClone Laboratories Inc., Logan, UT, cat. SH30070.03HI), 389 ng/mL hydrocortisone (Sigma-Aldrich, cat. H4001), 9.7 ng/mL human EGF recombinant protein (Invitrogen, cat. PHG0313), 23.4 microg/mL adenine (Sigma-Aldrich, cat. A2786), 97.3 U/mL penicillin-streptomycin (Invitrogen, cat. 15140122), 1.9 mM L-glutamine (Invitrogen, cat. 25030081), and 9.7 microM Y-27632 dihydrochloride (Tocris Bioscience, Bristol, United Kingdom, cat. 1254). The PDCs were cultured in complete DMEM/F12 media without 9.7 microM Y-27632 dihydrochloride for at least two passages prior to the screen. The established cell line HOP-62 was cultured in RPMI 1640 medium, HEPES (Invitrogen, cat. 22400105) with 10% defined fetal bovine serum (HyClone Laboratories Inc., cat. SH30070.03) and 2 mM L-glutamine (Invitrogen, cat. 25030081). The pooled donor HUVEC were cultured in endothelial cell growth medium 2 (PromoCell, Heidelberg, Germany, cat. C-22011) and the hMSC were cultured in mesenchymal stem cell growth medium 2 (PromoCell, cat. C-28009). For all experiments, HUVEC and hMSC were used at passages </=5, while the malignant cell lines were used at passages </=15. […]

[1] = compound alone, run of 07/12/2021
[2] = compound alone, run of 07/19/2021
[3] = compound alone, run of 07/26/2021
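Wherever IC50 is given: drug exposure lasted seven days after spheroids formed for three days.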
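Wherever viability, T/C is given: drug exposure lasted seven days after spheroids formed for three days.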

SMILES	viability, T/C (compound 0.1 µM)	viability, T/C (compound 0.316 µM)	viability, T/C (compound 1 µM)	viability, T/C (compound 3.16 µM)	viability, T/C (compound 10 µM)	viability, T/C (compound 0.0316 µM)	viability, T/C (compound 0.01 µM)	IC50 (curve of compound)	also measured
C=CC(=O)N1CCN(c2nc(=O)n(-c3c(C)ccnc3C(C)C)c3nc(-c4c(O)cccc4F)c(F)cc23)C(C)C1 (stereo not drawn)	25.5% [middle of 17 runs]	23.7% [middle of 17 runs]	25.1% [middle of 17 runs]	24.4% [middle of 17 runs]	23.8% [middle of 17 runs]				IC50 [1]: < 0.1 µM; IC50 [2]: < 0.1 µM; IC50 [3]: < 0.1 µM
C=CC(=O)N1CCN(c2nc(OCC3CCCN3C)nc3c2CCN(c2cccc4cccc(C)c24)C3)CC1CC#N (stereo not drawn)	31.3% [middle of 16 runs]		30.4% [middle of 17 runs]			35.5% [middle of 17 runs]			IC50 [1]: < 0.0316 µM; IC50 [2]: < 0.0316 µM; IC50 [3]: < 0.0316 µM
CC(=O)Nc1cccc(-n2c(=O)n(C3CC3)c(=O)c3c(Nc4ccc(I)cc4F)n(C)c(=O)c(C)c32)c1						15.6% [middle of 5 runs]	38.5% [middle of 5 runs]	2.56 nM [middle of 5 runs]	viability, T/C (compound 0.0001 µM): 80.8% [middle of 5 runs]; viability, T/C (compound 0.000316 µM): 63.3% [middle of 5 runs]; viability, T/C (compound 0.001 µM): 55.2% [middle of 5 runs]; viability, T/C (compound 0.00316 µM): 50.8% [middle of 5 runs]
CC(=O)OC12COC1CC(O)C1(C)C(=O)C(O)C3=C(C)C(OC(=O)C(O)C(NC(=O)OC(C)(C)C)c4ccccc4)CC(O)(C(OC(=O)c4ccccc4)C21)C3(C)C (stereo not drawn)	63.3% [middle of 5 runs]	63.1% [middle of 5 runs]	73.7% [middle of 5 runs]	70.1% [middle of 5 runs]		57.6% [middle of 5 runs]	67% [middle of 5 runs]		
CC(C)NCC(C(=O)N1CCN(c2ncnc3c2C(C)CC3O)CC1)c1ccc(Cl)cc1 (stereo not drawn)	83.4% [middle of 5 runs]	65.9% [middle of 5 runs]	71.3% [middle of 5 runs]		72.5% [middle of 4 runs]	101% [middle of 5 runs]		> 10 µM and 1.17 µM	outcome (compound 10 µM): active
CC(C)n1nc(-c2ccc3oc(N)nc3c2)c2c(N)ncnc21									viability, T/C (compound 0.000316 µM): 98.5% [middle of 5 runs]; viability, T/C (compound 0.001 µM): 89.3% [middle of 5 runs]
CC1(C)CCC(CN2CCN(c3ccc(C(=O)NS(=O)(=O)c4ccc(NCC5CCOCC5)c([N+](=O)[O-])c4)c(Oc4cnc5[nH]ccc5c4)c3)CC2)=C(c2ccc(Cl)cc2)C1	94.7% [middle of 5 runs]	87% [middle of 5 runs]	89.9% [middle of 5 runs]	45.9% [middle of 5 runs]	12.4% [middle of 5 runs]	98.2% [middle of 5 runs]		2.84 µM [middle of 5 runs]	
CC1COCCN1c1cc(-c2ccnn2C)c2ccnc(-c3ccn[nH]3)c2n1 (stereo not drawn)		74% [middle of 5 runs]					101% [middle of 5 runs]		
CC1OCC2(CCN(c3cnc(Sc4ccnc(N)c4Cl)c(N)n3)CC2)C1N (stereo not drawn)	56.3% [middle of 20 runs]	38.5% [middle of 20 runs]		21.6% [middle of 20 runs]	15.5% [middle of 19 runs]	81.9% and 81.1% and 73.7%		163 nM [middle of 5 runs]	IC50 [3]: 134 nM [middle of 6 runs]
CCN1CCN(Cc2ccc(Nc3ncc(F)c(-c4cc(F)c5nc(C)n(C(C)C)c5c4)n3)nc2)CC1	71% [middle of 5 runs]	70.9% [middle of 5 runs]	65.2% [middle of 5 runs]			76.9% [middle of 5 runs]	93.7% [middle of 5 runs]	> 1 µM	viability, T/C (compound 0.00316 µM): 97.6% [middle of 5 runs]
CCNC(=O)CC1N=C(c2ccc(Cl)cc2)c2cc(OC)ccc2-n2c(C)nnc21 (stereo not drawn)	103% [middle of 5 runs]	80.5% [middle of 5 runs]				115% [middle of 5 runs]			
CN(C)C/C=C/C(=O)Nc1cc2c(Nc3ccc(F)c(Cl)c3)ncnc2cc1O[C@H]1CCOC1	60.7% [middle of 5 runs]					60.4% [middle of 5 runs]	72.6% [middle of 5 runs]	> 0.1 µM	viability, T/C (compound 0.000316 µM): 100% [middle of 5 runs]; viability, T/C (compound 0.001 µM): 90.1% [middle of 5 runs]
COC(=O)c1ccc2c(C(=Nc3ccc(N(C)C(=O)CN4CCN(C)CC4)cc3)c3ccccc3)c(O)[nH]c2c1	91% [middle of 5 runs]		90.2% [middle of 5 runs]	93% [middle of 5 runs]	94.1% [middle of 5 runs]			> 10 µM	
COc1cc(Nc2ncc3c(n2)-c2ccc(Cl)cc2C(c2c(F)cccc2OC)=NC3)ccc1C(=O)O		74% [middle of 5 runs]		67.6% [middle of 5 runs]	48.9% [middle of 5 runs]	92.8% [middle of 5 runs]			
COc1cc(OC)cc(N(CCNC(C)C)c2ccc3ncc(-c4cnn(C)c4)nc3c2)c1		92.2% [middle of 5 runs]							
COc1cc2nc(C)nc(NC(C)c3cc(N)cc(C(F)(F)F)c3)c2cc1OC1CCOC1 (stereo not drawn)		71.1% [middle of 17 runs]							IC50 [1]: > 10 µM and 2.62 µM and 2.85 µM; IC50 [2]: > 10 µM; IC50 [3]: > 10 µM
COc1cc2nccc(Oc3ccc(NC(=O)C4(C(=O)Nc5ccc(F)cc5)CC4)cc3)c2cc1OC	78.3% [middle of 5 runs]	75.1% [middle of 5 runs]	67% [middle of 5 runs]			92% [middle of 5 runs]		> 10 µM	
Cn1nccc1Nc1nccc(-c2cc3c(s2)C(C)(C)N(CCN2CCOCC2)C3=O)n1	89.5% [middle of 5 runs]	74.6% [middle of 5 runs]	53.3% [middle of 5 runs]	37.5% [middle of 4 runs]	30.1% [middle of 5 runs]	95.8% [middle of 5 runs]		1.25 µM [middle of 5 runs]	
Cn1ncnc1[C@H]1c2n[nH]c(=O)c3cc(F)cc(c23)N[C@@H]1c1ccc(F)cc1	90.9% [middle of 5 runs]					104% [middle of 5 runs]	102% [middle of 5 runs]	> 0.1 µM	viability, T/C (compound 0.000316 µM): 99.5% [middle of 5 runs]; viability, T/C (compound 0.001 µM): 106% [middle of 5 runs]; viability, T/C (compound 0.00316 µM): 101% [middle of 5 runs]
O=C(c1cc(Cc2n[nH]c(=O)c3ccccc23)ccc1F)N1CCN(C(=O)C2CC2)CC1	99.1% [middle of 5 runs]	98.6% [middle of 5 runs]	93.1% [middle of 5 runs]	93.5% [middle of 5 runs]	97.9% [middle of 5 runs]	103% [middle of 5 runs]		> 10 µM	
